Results reported in patent publication US12053480B2, “Methods and pharmaceutical compositions for treating peripheral demyelinating diseases” (INSERM (INSTITUT NATIONAL DE LA SANTE ET DE LA RECHERCHE …, priority 2015, dated 2024).
“Also recorded” adds a separate entry of the source.

Assays:
VDAC1 = molecular target: T1, VDAC1 (Mus musculus, UniProt Q60932); assay: Cytoplasmic calcium imaging (GCaMP2, multiphoton) in mSC of mouse sciatic nerve; type: in vivo
T1 construct: strongly expressed in mSC mitochondria; from tissue; host or cells: myelinating Schwann cells (mSC) of the sciatic nerve of living mice (wild type; db/db and +/db in A10)
Method: Mice were anesthetized with isoflurane inhalation and placed under a Stemi2000 microscope (Zeiss). Incision area was shaved and cleaned using betadine solution. After incision, the gluteus superficialis and biceps femoris muscles were separated to reveal the cavity traversed by the sciatic nerve. The nerve was lift out using spatula and a thin glass needle filled with viral solution (8 μl) was introduced into the nerve with a micromanipulator. This solution was injected over 30 min with short pressure pulses using a Picospritzer III (Parker Hannifin) coupled to a pulse generator. After injection, the nerve was replaced into the cavity, the muscles were readjusted, and the wound was closed using clips (for further details see Gonzalez et al., 2014^3).
TRO19622 drug (Tocris bioscience, Ref. 2906) was diluted in ethanol to 20 mM and then, the solution was diluted in sterile PBS to 20 μM. TRO19622 treatments were realized by 3 mg/kg intraperitoneal (IP) injections of 20 mM solution or by intra sciatic nerve injections of 2 μl of drug solution 2 μM using a Hamilton syringe or a glass needle in sterile conditions 30 minutes before multiphoton image acquisitions or immunohistochemistry and demyelination studies respectively. Methyl jasmonate drug (Sigma-Aldrich, Ref. 392707) was diluted in 1 ml of sterile PBS to 1M or 3M. Methyl jasmonate treatments were realized by intra sciatic nerve injections of 1 μl of drug solution using a glass needle and micromanipulator in sterile conditions following the same virus injections procedure (see in vivo virus injection in the sciatic nerve method) two hours before multiphoton image acquisition. […] All drug concentrations were previously evaluated by Bordet et al, 2007^5; Goldin et al, 2008^6; Sharov et al, 2007^7.
First injected mouse was anesthetized with 5% of isoflurane a 1.5% of oxygen into the anesthesia system box (World Precision Instruments, Ref. EZ-B800) for 5 minutes. Anesthesia controls were realized^8. Then, mouse was placed in anesthesia mask and the incision area was shaved and cleaned with betadine and ethanol 70% solution. Incision was realized using a scalpel and the skin was retracted using forceps in order to expose the gluteus superficialis and bleeps femoris muscles. Next, the connective tissue that connects both muscles was cut and the sciatic nerve was gently lifted out using a spatula. A flexible bridge was slide below sciatic nerve and it was placed into a plastic first pool fixed to the bridge. Mouse was placed under the multiphoton microscope, the bridge was fixed using magnetic brackets to avoid physiological movement and mouse legs were fixed using clippers. Microscope dark box temperature is controlled to 37° C. during all time-lapse imaging. Finally, a second pool was fixed to the first pool using a drop of agarose low melting 3% (Promega, Ref. V2111) in Leibovitz's L15 medium (Gibco Life Technologies) and filled with deionized water to immerse the objectives 20× or 63× (Carl Zeiss Microscopy).
All time-lapse images were obtained with a multiphoton microscope Zeiss LSM 7 MP OPO. Mitochondria motility images were acquired by time-lapse recording of one image every five minutes during five hours at 920 nm. GCaMP2 and SypHer probe images were acquired by time-lapse recording of one image every fifteen minutes during five hours at 985 nm. Images were acquired to constant 1% of laser intensity to 100 msec of acquisition time with 512×512 resolution and 10 images of z-stack of 20 μm. Images were saved in Zeiss .czi format and processed using Image J program. For further details see Gonzalez et al., 201X^8
To characterize mitochondria physiology during the demyelination process we combined two in vivo methods. We used the nerve crush model to reliably induce demyelination in the mouse sciatic nerve and a viral approach^19 allowing the expression of different fluorescent probes selectively into mitochondria of myelinating Schwann cells (mSC) in mouse sciatic nerve. […]

CMT1A rats = assay: Behavioral motor tests (rotarod, grip, CatWalk) in CMT1A rats; type: in vivo, rat
Method: […] Mice and rats were first given a pretraining trial of two days to familiarize them with the rotating rod. For control and diabetic mice latency to fall was measured at fixed speed 10 rpm over a 180 s time as a cut-off. No acceleration testing was performed for mice. For control and CMT1A rats latency to fall and maximum rpm (revolutions per minute) were measured at accelerated speed. […] Each animal underwent three trials a day. For each day, data were averaged for each animal (values from the three trials), normalized according to animal weight and then averaged for each treated group.
Detailed analysis of gait was performed on free-walking 16 weeks old diabetic mice and 12 weeks old CMT1A rats using the CatWalk method (CatWalk XT 10.5, Noldus Information Technology) during PBS or TRO19622 treatment. The runs were analyzed when the speed of crossing was constant and homogenous. At least three compliant runs were analyzed for each animal Data were averaged per animal, normalized according to animal weight and then per treated group. The resulting data provided quantitative parameters and qualitative walking patterns.
Neuromuscular strength of diabetic mice and CMT rats was assessed in standardized grip strength tests for front, hind and all limbs. All limbs grip strength was measured by rat supporting on the metal grid and pulling the animal's tail toward a horizontal grid connected to a gauge. Front and hind limb grip strength were measured by supporting the forelimbs or hindlimbs respectively and pulling the animal's tail toward a horizontal T-bar connected to a gauge. The maximum force (measured in newtons) exerted onto the T-bar or grid before the animals lost grip was recorded, and the mean of 3 repeated measurements was calculated. All data were normalized according to animal weight.
Finally, we studied the neuromuscular performance of CMT1A and control rats using behavioral motor tests. […] Moreover, using catwalk test we observed a decrease of paw time stand (FIG. 2B), hind paw distance (FIG. 2C) and an increase of paw print area (FIG. 2D). […] Therefore inhibiting mitochondrial calcium release through VDAC1 opens a major avenue toward the treatment of human CMT1A.

[1] = CMT1A rats treated for one month

T1 sequence (Q60932 14-296): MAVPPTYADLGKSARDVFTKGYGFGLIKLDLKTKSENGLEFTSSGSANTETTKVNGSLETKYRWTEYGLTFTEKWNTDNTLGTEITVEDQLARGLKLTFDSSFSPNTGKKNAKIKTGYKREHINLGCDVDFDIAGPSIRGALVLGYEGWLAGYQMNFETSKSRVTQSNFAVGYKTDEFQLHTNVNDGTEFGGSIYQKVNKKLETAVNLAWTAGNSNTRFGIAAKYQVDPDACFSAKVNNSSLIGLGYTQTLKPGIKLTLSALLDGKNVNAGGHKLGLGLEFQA

part of the calcium appearing in the cytoplasm after nerve crush that is not abolished (non-mitochondrial origin) (VDAC1; after nerve crush with VDAC1 silenced or blocked): 13%
presence of cytoplasmic calcium in mSC after crush (VDAC1; cytoplasmic GCaMP2, after nerve crush): strong reduction
SMILES: CC(C)CCC[C@@H](C)[C@H]1CC[C@H]2[C@@H]3CCC4=C/C(=N\O)CC[C@]4(C)[C@H]3CC[C@]12C [TRO19622, (NZ)—N-[(8S,9S,10R,13R,14S,17R)-10,13-dimethyl-17-[(2R)-6-methylheptan-2-yl]-1,2,6,7,8,9,11,12,14,15,16,17-dodecahydrocyclopenta[a]phenanthren-3-ylidene]hydroxylamine]
grip strength (CMT1A rats; [1]): significant increase
latency on accelerating rotarod (CMT1A rats; [1]): significant increase
effects on demyelination, g-ratio and behavioral motor tests after stopping the treatment (CMT1A rats; CMT1A rats, 2 months after stopping the treatment): disappeared; also recorded: did not last
hind paw distance (CMT1A rats; CMT1A rats, catwalk test): decrease
paw print area (CMT1A rats; CMT1A rats, catwalk test): increase
paw time stand (CMT1A rats; CMT1A rats, catwalk test): decrease
